Measurements taken from ChEMBL document CHEMBL1141299, “Hologram QSAR model for the prediction of human oral bioavailability” (Bioorg Med Chem, 2007).

test: Oral bioavailability in human; conditions: in vivo

Structure (SMILES) | bioavailability [%]
CC(C)C[C@H]1C(=O)N2CCC[C@H]2[C@]2(O)O[C@](NC(=O)[C@@H]3C=C4c5cccc6[nH]c(Br)c(c56)C[C@H]4N(C)C3)(C(C)C)C(=O)N12 [BROMOCRIPTINE] | 4.5
O=C(O)CCCc1ccc(N(CCCl)CCCl)cc1 [CHLORAMBUCIL] | 87
CN/C(=N/CCSCc1nc[nH]c1C)NC#N [CIMETIDINE] | 60
C[N+]1(CC2CC2)[C@@H]2C[C@@H](OC(=O)[C@H](CO)c3ccccc3)C[C@H]1[C@@H]1O[C@@H]12.[Br-] (some centres undefined) [CIMETROPIUM BROMIDE] | 2
O=C1CN=C(c2ccccc2Cl)c2cc([N+](=O)[O-])ccc2N1 [CLONAZEPAM] | 90
CN1CCN(C2=Nc3cc(Cl)ccc3Nc3ccccc32)CC1 [CLOZAPINE] | 55
COc1ccc2c3c1O[C@H]1[C@@H](O)C=C[C@H]4[C@@H](C2)N(C)CC[C@@]341 [CODEINE] | 55
O=P1(N(CCCl)CCCl)NCCCO1 (centres undefined) [CYCLOPHOSPHAMIDE ANHYDROUS] | 74
CCN[C@@H](C)Cc1cccc(C(F)(F)F)c1 [DEXFENFLURAMINE] | 89
C[C@H]1O[C@@H](O[C@H]2[C@@H](O)C[C@H](O[C@H]3[C@@H](O)C[C@H](O[C@H]4CC[C@@]5(C)[C@H](CC[C@@H]6[C@@H]5CC[C@]5(C)[C@@H](C7=CC(=O)OC7)CC[C@]65O)C4)O[C@@H]3C)O[C@@H]2C)C[C@H](O)[C@@H]1O [DIGITOXIN] | 88.5
CC(C)C[C@H]1C(=O)N2CCC[C@H]2[C@]2(O)O[C@@](C)(NC(=O)[C@@H]3CC4c5cccc6[nH]cc(c56)C[C@H]4N(C)C3)C(=O)N12 (some centres undefined) [DIHYDROERGOSINE] | 10
CC(C)N(CC[C@@](C(N)=O)(c1ccccc1)c1ccccn1)C(C)C [DISOPIRAMIDE] | 83
CCCCCc1cc(O)c2c(c1)OC(C)(C)[C@@H]1CCC(C)=C[C@@H]21 [DRONABINOL] | 15
C[C@]12C=CC(=O)N[C@@H]1CC[C@@H]1[C@@H]2CC[C@]2(C)[C@@H](C(=O)Nc3cc(C(F)(F)F)ccc3C(F)(F)F)CC[C@@H]12 [DUTASTERIDE] | 60
CCC(=O)C(C[C@H](C)N(C)C)(c1ccccc1)c1ccccc1 [ESMETHADONE] | 92
CN1CCN(C(=O)O[C@H]2c3nccnc3C(=O)N2c2ccc(Cl)cn2)CC1 [ESZOPICLONE] | 80
OCCN1CCN(CCCN2c3ccccc3Sc3ccc(C(F)(F)F)cc32)CC1 [FLUPHENAZINE] | 2.7
CC(C)n1c(/C=C/[C@H](O)C[C@H](O)CC(=O)O)c(-c2ccc(F)cc2)c2ccccc21 [FLUVASTATIN] | 24
NCC1(CC(=O)O)CCCCC1 [GABAPENTIN] | 60

same assay, conditions: in vivo, F

Structure (SMILES) | bioavailability [%]
Cc1[nH]cnc1CN1CCc2c(c3ccccc3n2C)C1=O [ALOSETRON] | 55
CC(C)(C#N)c1cc(Cn2cncn2)cc(C(C)(C)C#N)c1 [ANASTROZOLE] | 84
CC(=O)Oc1ccccc1C(=O)O [ASPIRIN] | 68
CNCC[C@@H](Oc1ccccc1C)c1ccccc1 [ATOMOXETINE] | 63
O=C1C(O)=C([C@H]2CC[C@H](c3ccc(Cl)cc3)CC2)C(=O)c2ccccc21 [ATOVAQUONE] | 23
COc1ccccc1Oc1c(NS(=O)(=O)c2ccc(C(C)(C)C)cc2)nc(-c2ncccn2)nc1OCCO [BOSENTAN] | 50
CCCC1O[C@@H]2C[C@H]3[C@@H]4CCC5=CC(=O)C=C[C@]5(C)[C@H]4[C@@H](O)C[C@]3(C)[C@]2(C(=O)CO)O1 (some centres undefined) [BUDESONIDE] | 11
CCCCNc1cc(C(=O)O)cc(S(N)(=O)=O)c1Oc1ccccc1 [BUMETANIDE] | 81
CS(=O)(=O)OCCCCOS(C)(=O)=O [BUSULFAN] | 80
Cn1c(=O)c2c(ncn2C)n(C)c1=O [CAFFEINE] | 100
N[C@@H](C(=O)N[C@@H]1C(=O)N2C(C(=O)O)=C(Cl)CS[C@H]12)c1ccccc1 [CEFACLOR ANHYDROUS] | 90
Cc1nnc(SCC2=C(C(=O)O)N3C(=O)[C@@H](NC(=O)Cn4cnnn4)[C@H]3SC2)s1 [CEFAZOLIN] | 90
CCCCCCCCCCCCCCCC(=O)OC[C@@H](NC(=O)C(Cl)Cl)[C@H](O)c1ccc([N+](=O)[O-])cc1 [CHLORAMPHENICOL PALMITATE] | 80
O=C(N[C@H](CO)[C@H](O)c1ccc([N+](=O)[O-])cc1)C(Cl)Cl [CHLORAMPHENICOL] | 69
CN(C)[C@@H]1C(O)=C(C(N)=O)C(=O)[C@@]2(O)C(O)=C3C(=O)c4c(O)ccc(Cl)c4[C@@](C)(O)[C@H]3C[C@@H]12 [CHLORTETRACYCLINE] | 27.5
CC[C@H]1OC(=O)[C@H](C)[C@@H](O[C@H]2C[C@@](C)(OC)[C@@H](O)[C@H](C)O2)[C@H](C)[C@@H](O[C@@H]2O[C@H](C)C[C@H](N(C)C)[C@H]2O)[C@](C)(OC)C[C@@H](C)C(=O)[C@H](C)[C@@H](O)[C@]1(C)O [CLARITHROMYCIN] | 50
O=C(O)[C@H]1/C(=C/CO)O[C@@H]2CC(=O)N21 [CLAVULANIC ACID] | 75
CCOC(=O)C(C)(C)Oc1ccc(Cl)cc1 [CLOFIBRATE] | 95
Clc1cccc(Cl)c1N=C1NCCN1 [CLONIDINE] | 60
Cc1onc(-c2ccccc2Cl)c1C(=O)N[C@@H]1C(=O)N2[C@@H]1SC(C)(C)[C@@H]2C(=O)O [CLOXACILLIN] | 37
Nc1ccc(S(=O)(=O)c2ccc(N)cc2)cc1 [DAPSONE] | 93
CC(C)Nc1cccnc1N1CCN(C(=O)c2cc3cc(NS(C)(=O)=O)ccc3[nH]2)CC1 [DELAVIRDINE] | 96
CC(C)Cc1ccc([C@H](C)C(=O)O)cc1 [DEXIBUPROFEN] | 80
CC(C)NC[C@@H](O)c1ccc(NS(C)(=O)=O)cc1 [DEXSOTALOL] | 60
C[C@@H]1COc2c(N3CCN(C)CC3)c(F)cc3c(=O)c(C(=O)O)cn1c23 [DEXTROFLOXACINE] | 97.5
O=C(O)c1cc(-c2ccc(F)cc2F)ccc1O [DIFLUNISAL] | 100
C[C@H]1O[C@@H](O[C@H]2[C@@H](O)C[C@H](O[C@H]3[C@@H](O)C[C@H](O[C@H]4CC[C@@]5(C)[C@H](CC[C@@H]6[C@@H]5C[C@@H](O)[C@]5(C)[C@@H](C7=CC(=O)OC7)CC[C@]65O)C4)O[C@@H]3C)O[C@@H]2C)C[C@H](O)[C@@H]1O [DIGOXIN] | 95
COc1ccc([C@@H]2Sc3ccccc3N(CCN(C)C)C(=O)[C@@H]2OC(C)=O)cc1 [DILTIAZEM] | 40

Structure (SMILES) | bioavailability [%]
COc1cc2nc(N3CCN(C(=O)C4COc5ccccc5O4)CC3)nc(N)c2cc1OC (centres undefined) [DOXAZOSIN] | 65
C[C@H]1c2cccc(O)c2C(=O)C2=C(O)[C@]3(O)C(=O)C(C(N)=O)=C(O)[C@@H](N(C)C)[C@@H]3[C@@H](O)[C@@H]21.O [DOXYCYCLINE] | 93
Nc1nc(=O)n([C@@H]2CS[C@H](CO)O2)cc1F [EMTRICITABINE] | 93
N/N=c1/cc2c(n[nH]1)CCN(C(=O)c1ccccc1)C2 [ENDRALAZINE] | 75
CSc1ccc(C(=O)c2[nH]c(=O)[nH]c2C)cc1 [ENOXIMONE] | 53
CCN(CC)CC(O)CNC(=O)c1c(OC)c2ccccc2n1-c1ccccc1 (centres undefined) [EPROXINDINE] | 70
CC[C@H]1OC(=O)[C@H](C)[C@@H](O[C@H]2C[C@@](C)(OC)[C@@H](O)[C@H](C)O2)[C@H](C)[C@@H](O[C@@H]2O[C@H](C)C[C@H](N(C)C)[C@H]2O)[C@](C)(O)C[C@@H](C)C(=O)[C@H](C)[C@@H](O)[C@]1(C)O [ERYTHROMYCIN] | 35
CN(C)CCC[C@@]1(c2ccc(F)cc2)OCc2cc(C#N)ccc21 [ESCITALOPRAM] | 80
C[C@H](C(=O)O)c1ccc(-c2ccccc2)c(F)c1 [ESFLURBIPROFEN] | 92
COc1ccc2nc([S@@+]([O-])Cc3ncc(C)c(OC)c3C)[nH]c2c1 [ESOMEPRAZOLE] | 90
CCCCC(=O)O[C@H]1CC[C@H]2[C@@H]3CCc4cc(O)ccc4[C@H]3CC[C@]12C [ESTRADIOL VALERATE] | 3
CC[C@@H](CO)NCCN[C@@H](CC)CO [ETHAMBUTOL] | 77
C#C[C@]1(O)CC[C@H]2[C@@H]3CCc4cc(O)ccc4[C@H]3CC[C@@]21C [ETHINYL ESTRADIOL] | 40
CC(=O)OCC(CCn1cnc2cnc(N)nc21)COC(C)=O [FAMCICLOVIR] | 77
COc1ccc(-c2nc(-c3ccc(F)cc3F)[nH]c2-c2ccc(OC)cc2)cc1 [FENFLUMIZOLE] | 50
Cc1onc(-c2c(F)cccc2Cl)c1C(=O)N[C@@H]1C(=O)N2[C@@H]1SC(C)(C)[C@@H]2C(=O)O [FLOXACILLIN] | 49
Nc1nc(=O)[nH]cc1F [FLUCYTOSINE] | 83.5
CC1(C)O[C@@H]2C[C@H]3[C@@H]4C[C@H](F)C5=CC(=O)C=C[C@]5(C)[C@H]4[C@@H](O)C[C@]3(C)[C@]2(C(=O)CO)O1 [FLUNISOLIDE] | 20
C[C@@H]1C[C@H]2[C@@H]3C[C@H](F)C4=CC(=O)C=C[C@]4(C)[C@H]3[C@@H](O)C[C@]2(C)[C@H]1C(=O)CO [FLUOCORTOLONE] | 83.5
C[C@@H]1C[C@H]2[C@@H]3C[C@H](F)C4=CC(=O)C=C[C@]4(C)[C@@]3(F)[C@@H](O)C[C@]2(C)[C@@]1(O)C(=O)SCF [FLUTICASONE] | 1
COc1cc2ncnc(Nc3ccc(F)c(Cl)c3)c2cc1OCCCN1CCOCC1 [GEFITINIB] | 60
CO/N=C1\CN(c2nc3c(cc2F)c(=O)c(C(=O)O)cn3C2CC2)CC1CN (centres undefined) [GEMIFLOXACIN] | 71
CCC1=C(C)CN(C(=O)NCCc2ccc(S(=O)(=O)NC(=O)N[C@H]3CC[C@H](C)CC3)cc2)C1=O [GLIMEPIRIDE] | 100
COc1ccc(Cl)cc1C(=O)NCCc1ccc(S(=O)(=O)NC(=O)NC2CCCCC2)cc1 [GLYBURIDE] | 95
O=C(CCCN1CCC(O)(c2ccc(Cl)cc2)CC1)c1ccc(F)cc1 [HALOPERIDOL] | 60
NS(=O)(=O)c1cc2c(cc1Cl)NCNS2(=O)=O [HYDROCHLOROTHIAZIDE] | 71
CC(=O)[C@]1(O)Cc2c(O)c3c(c(O)c2[C@@H](O[C@H]2C[C@H](N)[C@H](O)[C@H](C)O2)C1)C(=O)c1ccccc1C3=O [IDARUBICIN] | 28
